Data as given in patent US12582635B2, “Compositions and methods for treating cancer with atypical BRAF mutations” (BIOMED VALLEY DISCOVERIES, INC., priority 2017, dated 2026).
Where two headings read alike, the source gives them in different places.

Tests used:
[1] = test system: cancers harboring atypical (non-V600E/K) BRAF mutations; experiment: solid tumor Phase 1b trial of BVD-523, tumor response by RECIST v1.1 and duration of treatment; type: in vivo, human; conditions: for duration of treatment: single patient
Experimental: The waterfall plot depicted in FIG. 2 provides an illustration of human clinical trial patient information showing each individual patient's response to treatment with BVD-523, as measured by % change in tumor burden. Patients generally received 600 mg, twice daily (BID), with some patients receiving a deescalated dose of 300 mg-400 mg BID if side effects were not manageable with other palliative medication. […] The horizontal axis across the plot serves as a baseline measurement for each patient. The vertical axis is a measure of the maximum percentage change from baseline; i.e., percent growth or reduction of tumor burden by radiologic measurement according to RECIST v1.1. Radiologic measurement comprised computed tomography (CT) scan and, rarely, magnetic resonance imaging (MRI). The tumor burden data represented by FIG. 2 is arranged from the worst value (i.e. greatest progression of tumor burden) on the left side of the plot to the best value (i.e., greatest reduction of tumor burden) on the right side of the plot. RECIST v1.1 response criteria for measured target lesions have been described previously. (See Eisenhauer, E. A., et al., New response evaluation criteria in solid tumours: Revised RECIST guideline (version 1.1), European J. of Cancer 45, 228-247 (2009), incorporated by reference herein in its entirety). […] Members of Group 1 are any patients with any BRAF mutation in any tumor type other than colorectal cancer (CRC) and non-small cell lung carcinoma (NSCLC), and that have not been previously treated with a MAPK pathway inhibitor. The members of Group 2 are patients with any BRAF mutation in CRC that have not been previously treated with a MAPK pathway inhibitor. The members of Group 3 are patients having a tumor with a BRAF […] mutation that is refractory to MAPK inhibitor treatment. The members of Group 6 are patients with any BRAF mutation present in NSCLC. […] The duration of treatment for each subject in each group is illustrated from the top (longest treatment duration) to bottom (least treatment duration) of the groups. The horizontal axis represents the duration, in days, that the patient was on the study. […] All 28 patients measured for RECIST v1.1 response criteria are included, plus additional patients not evaluated by RECIST v1.1 (diamond=partial response; circle=stable disease: vertical bar=progressive disease; triangle=not evaluated). The mean duration of BVD-523 treatment before discontinuation for tumors harboring the same BRAF mutation was: […], 73.6 days; […], 208.14 days: […], 50.25 days: […], 73.3 days; […], 63.5 days. For single patient representatives of specific BRAF mutations, the duration of treatment was: […], 304 days: […], 84 days: […], 77 days: BRAF fusion, 65 days: BRAF-AGAP3 rearrangement, 43 days: BRAF exon 15 splice variant, 15 days. By genomic screening of cancer patients for BRAF mutation and treating them prior to full in vitro characterization of those mutations (as a driver mutation), BVD-523 is shown to be useful to interrogate and discover efficacious treatment options for patients carrying mutations in BRAF. The clinical population of patients and the efficacy is not defined primarily by tumor type, but rather mutational status of enzymes such as BRAF, upstream of ERK 1/2 kinase activation.

ERK1/2 [2] = experiment: autophosphorylation of ERK (mechanism of action of ERK1/2 inhibitors); type: biochemical; conditions: stated in the description, no test described
ERK1/2 [3] = conditions: Morris et al., 2013; cited from earlier work
[4] = 28 evaluable patients, RECIST v1.1, generally 600 mg BID

Compound	number of patients with partial response (PR) [1, 4]	number of patients with progressive disease at first evaluation [1, 4]	number of patients with stable disease [1, 4] [patients]	patients with partial response or stable disease ([1]; patients with atypical (non-V600E/K) BRAF mutations, RECIST v1.1)	duration of treatment ([1]; BRAF F247L) [days]	duration of treatment ([1]; BRAF G466V) [days]	duration of treatment ([1]; BRAF L485W) [days]	duration of treatment ([1]; BRAF exon 15 splice variant) [days]	duration of treatment ([1]; BRAF fusion) [days]	duration of treatment ([1]; BRAF-AGAP3 rearrangement) [days]	mean duration of treatment before discontinuation ([1]; tumors harboring BRAF D594) [days]	mean duration of treatment before discontinuation ([1]; tumors harboring BRAF G469) [days]	mean duration of treatment before discontinuation ([1]; tumors harboring BRAF K601E) [days]	mean duration of treatment before discontinuation ([1]; tumors harboring BRAF L597) [days]	mean duration of treatment before discontinuation ([1]; tumors harboring BRAF T599 Dup) [days]	effect on autophosphorylation of ERK (ERK1/2 [2])	effect on autophosphorylation of ERK (ERK1/2 [3])
CC(C)Nc1cc(-c2c[nH]c(C(=O)N[C@H](CO)c3cccc(Cl)c3)c2)c(Cl)cn1 [BVD-523]	Five	Three	19	24 out of 28	84	77	304	15	65	43	73.6	208.14	50.25	73.3	63.5	allows for the autophosphorylation of ERK while still inhibiting ERK	
O=C(Nc1ccc2[nH]nc(-c3ccncc3)c2c1)[C@@H]1CCN(CC(=O)N2CCN(c3ccc(-c4ncccn4)cc3)CC2)C1 [SCH772984]																	inhibit autophosphorylation of ERK
